Columns and labels:
Assay type in all cases: biochemical
[1] = target: T1, Collagen Prolyl Hydroxylase II (CPH2) (Homo sapiens, UniProt O15460); assay: Collagen prolyl hydroxylase II activity by radiometric HPLC measurement of 2-oxoglutarate conversion to succinic acid; conditions: Table 5; 50 μM 2-oxoglutarate, 100 μM PPG10, 10 μM FeSO4
T1 construct: made in house; host or cells: Trichoplusia ni insect cells (baculovirus)
Protocol: Assay conditions were established in separate studies to define dependence on dithiothreitol (DTT), ascorbate, and catalase, and to define reaction linearity and Km values for 2-oxoglutarate (2-OG; PerkinElmer LAS, Shelton, Conn. or Moravek Biochemicals, Brea, Calif.), FeSO4, and (Pro-Pro-Gly)10 peptide (PPG10; Peptides International, Louisville, Ky.). […] Product inhibition was not evident. Compounds were dissolved and serially diluted in 100% DMSO for potency determination. Assay Buffer consisted of Tris-HCl, pH 7.5, 0.2 mM DTT, and 0.5 mg/ml catalase. PPG10 peptide was dissolved in 0.25% acetic acid and denatured by boiling for 5 minutes then placed on ice for 5 minutes. The denatured PPG10 was then pre-mixed with 1 M ascorbate, prepared in water, and the mixture diluted with Assay Buffer to yield a working solution of 5× peptide and ascorbate. FeSO4 was freshly dissolved in water and diluted to a 2.8× concentration in Assay Buffer. Enzyme stocks were diluted to a 5× concentration in Assay Buffer. Example compounds plus FeSO4 solution were mixed, followed by addition of 5× enzyme solutions. After 10 minutes gentle mixing at room temperature, the 5× peptide solution was added. After another 10 minutes gentle mixing at room temperature, a 5× stock of 2-OG was added to initiate the reaction. Final concentrations in the assay were: 50 mM Tris-HCl, pH 7.5, 0.2 mM DTT, 0.5 mg/mL catalase, 10 μM FeSO4, 100 μM PPG10, 50 μM 5-[^14C]-2-oxoglutarate ([…]), 1 mM ascorbate, and 4% DMSO. Reactions were gently mixed at room temperature for 1 hour and terminated by addition of an equal volume of 0.02 NH2SO4. Unless otherwise indicated, all reagents were obtained from Sigma and were the highest grade available.
A portion of each terminated reaction was auto-injected into a Polypore H column (PerkinElmer, Waltham, Mass.) at a rate of 0.3 mL/min with 0.01 N H2SO4 as the mobile phase. The HPLC method employed exploits the difference in pKa of the 2-OG and SA carboxylates to chromatographically separate substrate from product at low pH on ion-exchange resin, as described by Cunliffe, et al (Biochem J., 240, 617-619 (1986)) and Kaule and Gunzler (Anal. Biochem., 184, 291-297 (1990)). An Agilent 1100 HPLC System with dual quaternary pumps, column switching valve, and dual columns was used to resolve product from substrate. The Agilent 1100 Multiple Wavelength Detector indicated UV absorption of the substrate and product peaks at 210 nm and a Beta-RAM Model 2 radiation detector with In-Flow 2:1 scintillation cocktail (IN/US Systems Inc.) enabled quantitation of the 2 radioactive peaks. Laura Lite software (IN/US, Tampa, Fla.) was used to collect and analyze radiometric data. AUC measurements were converted to percent turnover of 2-OG. To standardize across studies, 2-OG conversion was normalized to percent of control (POC) values using reactions that lacked enzyme or inhibitor as low and high controls, respectively. POC data was fitted to the 4-parameter logistic model (A+((B−A)/(1+((x/C)^D)))) using ActivityBase (IDBS, Alameda Calif.) where A is the minimum POC value, B is the maximum POC value, D is the slope factor, and C is compound concentration at the inflection point (IC50, micromolar).
The Baculovirus Expression Vector System (BEVS) from Invitrogen was used to express collagen prolyl 4-hydroxylase (CPH) in Trichoplusia ni insect cells. Active collagen prolyl 4-hydroxylase is an oligomeric protein that exists as an α2β2 tetramer. The alpha subunits incorporated into the tetramer can be either collagen prolyl 4-hydroxylase α1 (GenBank reference sequence NM_000917) or collagen prolyl 4-hydroxylase α2 (GenBank reference sequence NM_004199). The beta subunit, collagen prolyl 4-hydroxylase β (GenBank reference sequence NM_000918), is common to both forms of the tetramer. […]

[2] = target: T2, Collagen Prolyl Hydroxylase I (CPH1) (Homo sapiens, UniProt P13674); assay: Collagen prolyl hydroxylase I activity by radiometric HPLC measurement of 2-oxoglutarate conversion to succinic acid; conditions: Table 5; 50 μM 2-oxoglutarate, 100 μM PPG10, 10 μM FeSO4
T2 construct: made in house; host or cells: Trichoplusia ni insect cells (baculovirus)
T2 sequence (P13674 18-534 isoform P13674-2): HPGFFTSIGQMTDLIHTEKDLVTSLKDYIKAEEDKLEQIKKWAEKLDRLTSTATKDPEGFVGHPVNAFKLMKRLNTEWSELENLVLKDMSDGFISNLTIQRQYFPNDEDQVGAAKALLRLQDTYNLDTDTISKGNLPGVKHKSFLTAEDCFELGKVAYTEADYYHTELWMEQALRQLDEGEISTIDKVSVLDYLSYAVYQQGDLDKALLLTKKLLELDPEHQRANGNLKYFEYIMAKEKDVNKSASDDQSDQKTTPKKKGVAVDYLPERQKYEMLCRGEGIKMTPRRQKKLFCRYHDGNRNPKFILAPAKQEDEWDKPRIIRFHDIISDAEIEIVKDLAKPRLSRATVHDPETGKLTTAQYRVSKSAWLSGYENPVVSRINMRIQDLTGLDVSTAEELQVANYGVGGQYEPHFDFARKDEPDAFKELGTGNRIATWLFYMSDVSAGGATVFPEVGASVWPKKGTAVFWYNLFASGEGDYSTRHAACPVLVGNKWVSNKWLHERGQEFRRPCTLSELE
T2 sequence (P07237 18-508 partner): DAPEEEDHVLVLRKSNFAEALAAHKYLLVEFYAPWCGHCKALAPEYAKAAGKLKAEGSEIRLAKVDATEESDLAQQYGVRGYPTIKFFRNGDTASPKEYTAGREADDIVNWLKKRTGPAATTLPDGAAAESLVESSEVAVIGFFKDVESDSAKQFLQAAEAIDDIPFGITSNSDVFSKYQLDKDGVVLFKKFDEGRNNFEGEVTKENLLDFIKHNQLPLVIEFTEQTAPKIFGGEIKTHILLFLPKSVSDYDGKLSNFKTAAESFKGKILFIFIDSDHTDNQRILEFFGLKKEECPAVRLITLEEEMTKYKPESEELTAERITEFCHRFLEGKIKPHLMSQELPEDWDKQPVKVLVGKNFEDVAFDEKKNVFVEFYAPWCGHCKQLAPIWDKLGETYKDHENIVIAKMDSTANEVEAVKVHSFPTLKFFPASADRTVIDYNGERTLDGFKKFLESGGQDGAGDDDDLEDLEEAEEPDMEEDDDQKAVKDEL
Protocol: Product inhibition was not evident. Compounds were dissolved and serially diluted in 100% DMSO for potency determination. Assay Buffer consisted of Tris-HCl, pH 7.5, 0.2 mM DTT, and 0.5 mg/ml catalase. PPG10 peptide was dissolved in 0.25% acetic acid and denatured by boiling for 5 minutes then placed on ice for 5 minutes. The denatured PPG10 was then pre-mixed with 1 M ascorbate, prepared in water, and the mixture diluted with Assay Buffer to yield a working solution of 5× peptide and ascorbate. FeSO4 was freshly dissolved in water and diluted to a 2.8× concentration in Assay Buffer. Enzyme stocks were diluted to a 5× concentration in Assay Buffer. Example compounds plus FeSO4 solution were mixed, followed by addition of 5× enzyme solutions. After 10 minutes gentle mixing at room temperature, the 5× peptide solution was added. After another 10 minutes gentle mixing at room temperature, a 5× stock of 2-OG was added to initiate the reaction. Final concentrations in the assay were: 50 mM Tris-HCl, pH 7.5, 0.2 mM DTT, 0.5 mg/mL catalase, 10 μM FeSO4, 100 μM PPG10, 50 μM 5-[^14C]-2-oxoglutarate (23-37 cpm/μmol), 1 mM ascorbate, and 4% DMSO. Reactions were gently mixed at room temperature for 1 hour and terminated by addition of an equal volume of 0.02 NH2SO4.
A portion of each terminated reaction was auto-injected into a Polypore H column (PerkinElmer, Waltham, Mass.) at a rate of 0.3 mL/min with 0.01 N H2SO4 as the mobile phase. […] An Agilent 1100 HPLC System with dual quaternary pumps, column switching valve, and dual columns was used to resolve product from substrate. The Agilent 1100 Multiple Wavelength Detector indicated UV absorption of the substrate and product peaks at 210 nm and a Beta-RAM Model 2 radiation detector with In-Flow 2:1 scintillation cocktail (IN/US Systems Inc.) enabled quantitation of the 2 radioactive peaks. Laura Lite software (IN/US, Tampa, Fla.) was used to collect and analyze radiometric data. AUC measurements were converted to percent turnover of 2-OG. To standardize across studies, 2-OG conversion was normalized to percent of control (POC) values using reactions that lacked enzyme or inhibitor as low and high controls, respectively. POC data was fitted to the 4-parameter logistic model (A+((B−A)/(1+((x/C)^D)))) using ActivityBase (IDBS, Alameda Calif.) where A is the minimum POC value, B is the maximum POC value, D is the slope factor, and C is compound concentration at the inflection point (IC50, micromolar).

[3] = target: HIF PHD2 (Homo sapiens, UniProt Q9GZT9); assay: PHD2 inhibition assay, TR-FRET detection with VCB-Eu
Sequence of HIF PHD2 (Q9GZT9 whole entry): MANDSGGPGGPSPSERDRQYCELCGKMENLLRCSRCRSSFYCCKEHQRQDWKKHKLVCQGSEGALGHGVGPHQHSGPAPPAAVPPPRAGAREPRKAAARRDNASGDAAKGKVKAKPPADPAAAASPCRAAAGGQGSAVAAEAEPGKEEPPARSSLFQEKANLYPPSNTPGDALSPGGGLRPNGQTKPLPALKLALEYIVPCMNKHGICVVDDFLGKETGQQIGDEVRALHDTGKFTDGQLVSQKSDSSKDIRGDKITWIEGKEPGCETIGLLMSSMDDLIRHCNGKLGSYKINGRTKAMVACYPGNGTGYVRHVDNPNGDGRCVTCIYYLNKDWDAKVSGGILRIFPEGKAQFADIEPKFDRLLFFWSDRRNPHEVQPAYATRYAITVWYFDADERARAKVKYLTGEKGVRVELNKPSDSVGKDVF
Protocol: Inhibition of HIF PHD2 activity was quantified utilizing the TR-FRET technology. HIF PHD2 catalyzes a hydroxyl modification on the proline residue of the P564-HIF1α peptide substrate (Biotin-[…] (SEQ ID NO: 7)) resulting in recognition and binding of the europylated Von Hippel-Lindau protein (pVHL), elongin B and elongin C heterotrimeric (VCB-Eu) complex.
The PHD2 inhibition assay was executed by addition of freshly dissolved FeCl2 to 178.57 μM (100 μM final concentration) in PHD2 Reaction Buffer containing 30 mM MES, pH 6, 10 mM NaCl, 0.25% Brij-35, 0.01% BSA, and 1% DMSO. 28 μL of the iron solution and 2 μL of inhibitor compounds serially diluted in 100% DMSO (5% DMSO final) were added to black polypropylene 96-well microtiter plates. To that, 10 μL of 10 nM PHD2 (2 nM final) was added to all wells of the plate except for the 8 wells of column 12 (LO control), and allowed to incubate at room temperature on the shaker for one hour. Column 6 was the HI control containing PHD2 enzyme and 5% DMSO vehicle, but no inhibitor compound. To initiate the PHD2 enzymatic reaction, 10 μL of a solution containing 500 nM P564-HIF1α peptide (100 nM final), 10 mM ascorbic acid (2 mM final), and 1.25 μM 2-oxoglutarate (α-ketoglutarate; 0.25 μM final) in PHD2 Reaction Buffer was added to all wells of the plate and allowed to incubate on the shaker at room temperature for one hour.
The reaction was terminated by addition of 25 μL TR-FRET Buffer (50 mM TRIS-HCl, pH 9, 100 mM NaCl, 0.05% BSA, and 0.5% Tween-20) containing 150 mM succinate (product inhibitor; 50 mM final), 75 nM streptavidin-APC (25 nM final), and 7.5 nM VCB-Eu (2.5 nM final). The TR-FRET detection reagents were placed on a shaker for 1 hour to reach binding equilibrium before reading on the Discovery platform (PerkinElmer). Europium is excited at 315 nm and phosphoresces at 615 nm with a large Stoke's shift. APC, in turn, emits at 655 nm upon excitation at 615 nm. The TR-FRET signal is measured as the ratio of the APC 655 nm signal divided by the internal europium reference 615 nm emission signal.
The POC (percentage of control) was determined by comparing the signal from hydroxylated peptide substrate in the enzyme reaction containing inhibitor compound with that from PHD2 enzyme with DMSO vehicle alone (HI control), and no enzyme (LO control). POC was calculated using the formula: % control (POC)=(cpd−average LO)/(average HI−average LO)*100. Data (consisting of POC and inhibitor concentration in μM) was fitted to a 4-parameter equation (y=A+((B−A)/(1+((x/C)^[…]))), where A is the minimum y (POC) value, B is the maximum y (POC), C is the x (cpd concentration) at the point of inflection and D is the slope factor) using a Levenburg-Marquardt non-linear regression algorithm.

[4] = Table 5, Example and Comparative Compounds
[5] = Table 4, TR-FRET, 2 nM PHD2, 100 nM P564-HIF1α peptide, 0.25 μM 2-oxoglutarate

T1 sequence (O15460 22-533 isoform O15460-2): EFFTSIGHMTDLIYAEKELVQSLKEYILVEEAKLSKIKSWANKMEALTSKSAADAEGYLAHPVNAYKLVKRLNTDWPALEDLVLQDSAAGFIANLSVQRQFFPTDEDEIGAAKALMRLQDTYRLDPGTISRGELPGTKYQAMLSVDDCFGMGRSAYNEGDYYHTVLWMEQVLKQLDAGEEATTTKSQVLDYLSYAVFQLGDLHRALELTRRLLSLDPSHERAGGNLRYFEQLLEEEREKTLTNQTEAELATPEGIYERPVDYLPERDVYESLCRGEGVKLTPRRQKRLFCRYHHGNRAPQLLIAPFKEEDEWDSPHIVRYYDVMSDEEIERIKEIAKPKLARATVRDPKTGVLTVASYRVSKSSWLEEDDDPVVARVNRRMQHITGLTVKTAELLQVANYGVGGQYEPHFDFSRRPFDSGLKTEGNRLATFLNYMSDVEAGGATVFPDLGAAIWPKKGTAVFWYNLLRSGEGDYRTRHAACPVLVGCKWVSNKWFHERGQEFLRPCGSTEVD
T1 sequence (P07237 18-508 partner): as the sequence (P07237 18-508 partner) above

Row | Compound | IC50 [1] [nM] | IC50 [2] [nM] | IC50 [3, 4] [nM] | IC50 [3, 5] [nM]
1 | Cn1c(=O)c(C(=O)NCC(=O)O)c(O)c2c(Br)cccc21 [Comparative Compound 1, reference compound] | 58 | 341 | 188 | –
2 | Cn1c(=O)c(C(=O)NCC(=O)O)c(O)c2cc(Br)ccc21 [Comparative Compound 2, reference compound] | 115 | 404 | 351 | –
3 | Cn1c(=O)c(C(=O)NCC(=O)O)c(O)c2ccc(Br)cc21 [Comparative Example 3, reference compound] | 111 | 351 | 46 | –
4 | Cn1c(=O)c(C(=O)NCC(=O)O)c(O)c2cccc(Br)c21 [Comparative Example 4, reference compound] | 261 | 503 | 104 | –
5 | Cn1c(=O)c(C(=O)CCC(=O)O)c(O)c2cc(I)cnc21 [Example 1, 4-(4-hydroxy-6-iodo-1-methyl-2-oxo-1,2-dihydro-1,8-naphthyridin-3-yl)-4-oxobutanoic acid] | – | – | – | 208
6 | Cn1c(=O)c(C(=O)CCC(=O)O)c(O)c2cccc(Br)c21 [Example 2, 4-(8-bromo-4-hydroxy-1-methyl-2-oxo-1,2-dihydroquinolin-3-yl)-4-oxobutanoic acid] | 1870 | 22700 | – | 775
7 | Cn1c(=O)c(C(=O)CCC(=O)O)c(O)c2ccc(C(F)(F)F)nc21 [Example 3, 4-(4-hydroxy-1-methyl-2-oxo-7-(trifluoromethyl)-1,2-dihydro-1,8-naphthyridin-3-yl)-4-oxobutanoic acid] | – | – | – | 64.5
8 | Cn1c(=O)c(C(=O)CCC(=O)O)c(O)c2ccc(Br)cc21 [Example 4, 4-(7-bromo-4-hydroxy-1-methyl-2-oxo-1,2-dihydroquinolin-3-yl)-4-oxobutanoic acid] | 13400 | – | 64.9 | 64.9
9 | Cn1c(=O)c(C(=O)CCC(=O)O)c(O)c2ccccc21 [Example 5, 4-(4-hydroxy-1-methyl-2-oxo-1,2-dihydroquinolin-3-yl)-4-oxobutanoic acid] | – | – | – | 566
10 | O=C(O)CCC(=O)c1c(O)c2ccc(F)c(F)c2n(Cc2ccccc2)c1=O [Example 6, 4-(1-benzyl-7,8-difluoro-4-hydroxy-2-oxo-1,2-dihydroquinolin-3-yl)-4-oxobutanoic acid] | – | – | – | 135
11 | Cn1c(=O)c(C(=O)CCC(=O)O)c(O)c2cc(Br)ccc21 [Example 7, 4-(6-bromo-4-hydroxy-1-methyl-2-oxo-1,2-dihydroquinolin-3-yl)-4-oxobutanoic acid] | 3820 | – | – | 309
12 | Cn1c(=O)c(C(=O)CCC(=O)O)c(O)c2c(Br)cccc21 [Example 8, 4-(5-bromo-4-hydroxy-1-methyl-2-oxo-1,2-dihydroquinolin-3-yl)-4-oxobutanoic acid] | 5280 | – | – | 343
13 | Cn1c(=O)c(C(=O)CCC(=O)O)c(O)c2c(F)ccc(F)c21 [Example 9, 4-(5,8-difluoro-4-hydroxy-1-methyl-2-oxo-1,2-dihydroquinolin-3-yl)-4-oxobutanoic acid] | – | – | – | 779
14 | Cn1c(=O)c(C(=O)CCC(=O)O)c(O)c2ccc(F)c(F)c21 [Example 10, 4-(7,8-difluoro-4-hydroxy-1-methyl-2-oxo-1,2-dihydroquinolin-3-yl)-4-oxobutanoic acid] | – | – | – | 285
15 | Cn1c(=O)c(C(=O)CCC(=O)O)c(O)c2ccc(-c3ccc(C(=O)O)cc3)cc21 [Example 11, 4-(3-(3-carboxypropanoyl)-4-hydroxy-1-methyl-2-oxo-1,2-dihydroquinolin-7-yl)benzoic acid] | – | – | – | 11.4
